Earlier results in US20210147810A1, “SINGLE LUNG CELL-DERIVED ORGANOIDS” (Rutgers, The State University of New Jersey, priority 2017, published 2021).

Tested on: PTPRT-mutant NSCLC
Settings: in vivo

CC(=O)c1cc2c(o1)C(=O)c1ccccc1C2=O [BBI608]
anti-tumor activity: effective anti-tumor activity
